Laboratory results: PubChem BioAssay AID248 (DTP/NCI, 2004)
Where “and” joins values, the source holds several entries; their conditions need not be identical. Equal values may be shown once. Toxic doses and inconclusive results are not listed. Rule as the data show it: active = T/C of 150% or more; inactive = T/C below 125%.

Test system: L1210 leukemia ip in BDF1 mice, survival T/C
Experiment: NCI In Vivo Anticancer Drug Screen. Data for tumor model L1210 Leukemia (intraperitoneal) in B6D2F1 (BDF1) mice
Settings: endpoint: mean survival time, higher = longer survival
Outline: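 Read-out is survival time, reported as the treated-group measurement over the vehicle-control measurement.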

[1] = dose: 100.0 mg/kg/injection, schedule: Q01DX001 (ip), vehicle: saline
[2] = dose: 100.0 mg/kg/injection, schedule: Q01DX009 (ip), vehicle: saline
[3] = dose: 100.0 mg/kg/injection, schedule: Q04DX003 (ip), vehicle: saline
[4] = dose: 200.0 mg/kg/injection, schedule: Q01DX001 (ip), vehicle: saline
[5] = dose: 200.0 mg/kg/injection, schedule: Q01DX009 (ip), vehicle: saline
[6] = dose: 200.0 mg/kg/injection, schedule: Q04DX003 (ip), vehicle: saline
[7] = dose: 400.0 mg/kg/injection, schedule: Q01DX001 (ip), vehicle: saline
[8] = dose: 400.0 mg/kg/injection, schedule: Q01DX009 (ip), vehicle: saline
[9] = dose: 400.0 mg/kg/injection, schedule: Q04DX003 (ip), vehicle: saline
[10] = dose: 100.0 mg/kg/injection, schedule: Q01DX009 (ip), vehicle: Klucel (hydroxypropylcellulose) (HPC)
[11] = dose: 200.0 mg/kg/injection, schedule: Q01DX009 (ip), vehicle: Klucel (hydroxypropylcellulose) (HPC)
[12] = dose: 400.0 mg/kg/injection, schedule: Q01DX009 (ip), vehicle: Klucel (hydroxypropylcellulose) (HPC)
[13] = dose: 75.0 mg/kg/injection, schedule: Q04DX003 (ip), vehicle: Klucel (hydroxypropylcellulose) (HPC)
[14] = dose: 150.0 mg/kg/injection, schedule: Q04DX003 (ip), vehicle: Klucel (hydroxypropylcellulose) (HPC)
[15] = dose: 300.0 mg/kg/injection, schedule: Q04DX003 (ip), vehicle: Klucel (hydroxypropylcellulose) (HPC)
[16] = dose: 100.0 mg/kg/injection, schedule: Q01DX001 (ip), vehicle: saline with Tween-80
[17] = dose: 200.0 mg/kg/injection, schedule: Q01DX001 (ip), vehicle: saline with Tween-80
[18] = dose: 400.0 mg/kg/injection, schedule: Q01DX001 (ip), vehicle: saline with Tween-80
[19] = dose: 100.0 mg/kg/injection, schedule: Q01DX001 (ip), vehicle: carboxymethylcellulose (CMC)
[20] = dose: 200.0 mg/kg/injection, schedule: Q01DX001 (ip), vehicle: carboxymethylcellulose (CMC)
[21] = dose: 400.0 mg/kg/injection, schedule: Q01DX001 (ip), vehicle: carboxymethylcellulose (CMC)
[22] = dose: 6.25 mg/kg/injection, schedule: Q01DX009 (ip), vehicle: saline
[23] = dose: 12.5 mg/kg/injection, schedule: Q01DX009 (ip), vehicle: saline
[24] = dose: 25.0 mg/kg/injection, schedule: Q01DX009 (ip), vehicle: saline
[25] = dose: 25.0 mg/kg/injection, schedule: Q04DX003 (ip), vehicle: saline
[26] = dose: 50.0 mg/kg/injection, schedule: Q01DX001 (ip), vehicle: carboxymethylcellulose (CMC)
[27] = dose: 75.0 mg/kg/injection, schedule: Q01DX001 (ip), vehicle: saline
[28] = dose: 150.0 mg/kg/injection, schedule: Q01DX001 (ip), vehicle: saline

Measured: T/C

O=S(=O)(O)CBr
inactive: [1] 107 % of control | [2] 91 % of control | [3] 100 % of control | [4] 106 % of control | [5] 96 % of control | [6] 100 % of control | [7] 109 % of control | [8] 98 % of control | [9] 106 % of control

CC1CCCCN1C(=O)Nc1cccc(F)c1 (centres undefined)
inactive: [10] 104 % of control | [11] 102 % of control | [12] 111 % of control

CCSP(=S)(SCC)SCC
inactive: [13] 94 % of control | [14] 92 % of control | [15] 120 % of control

C[N+](C)(C)c1ccc(/C=C2\C=Cc3ccccc32)cc1
inactive: dose: 15.0 mg/kg/injection, schedule: Q01DX001 (ip), vehicle: carboxymethylcellulose (CMC) 108 % of control | dose: 30.0 mg/kg/injection, schedule: Q01DX001 (ip), vehicle: carboxymethylcellulose (CMC) 102 % of control

CC(=O)COc1ccc([N+](=O)[O-])cc1
inactive: [16] 100 % of control | [17] 102 % of control | [18] 98 % of control

CCN(CCNC(C)(C)[P+](=O)O)c1ccccc1
inactive: [13] 100 % of control | [1] 105 % of control | [14] 96 % of control | [4] 105 % of control | [15] 110 % of control | [7] 102 % of control

Cc1ccc(-n2c(O)c(N=Nc3ccc(Cl)cc3)c(=O)n(-c3ccc(C)cc3)c2=S)cc1
inactive: dose: 37.5 mg/kg/injection, schedule: Q01DX001 (ip), vehicle: Klucel (hydroxypropylcellulose) (HPC) 97 % of control | dose: 75.0 mg/kg/injection, schedule: Q01DX001 (ip), vehicle: Klucel (hydroxypropylcellulose) (HPC) 107 % of control | dose: 150.0 mg/kg/injection, schedule: Q01DX001 (ip), vehicle: Klucel (hydroxypropylcellulose) (HPC) 96 % of control

CC1(C)CC(=O)CC(C)(C)N1
inactive: [3] 107 % of control | [6] 100 % of control

CN(/N=C/c1ccccn1)C(N)=S
inactive: dose: 75.0 mg/kg/injection, schedule: Q01DX001 (ip), vehicle: carboxymethylcellulose (CMC) 96 % of control | dose: 150.0 mg/kg/injection, schedule: Q01DX001 (ip), vehicle: carboxymethylcellulose (CMC) 96 % of control | dose: 300.0 mg/kg/injection, schedule: Q01DX001 (ip), vehicle: carboxymethylcellulose (CMC) 97 % of control

O/N=c1/cc(-c2ccc(Cl)cc2)ss1
inactive: [2] 91 % of control | [3] 93 % of control | [5] 89 % of control | [6] 95 % of control | [8] 96 % of control | [9] 97 % of control

CCCCCc1nc2c(c(=O)n(C)c(=O)n2C)n1C
inactive: dose: 50.0 mg/kg/injection, schedule: Q01DX001 (ip), vehicle: saline 112 % of control | [1] 100 % of control | [4] 102 % of control | [7] 106 % of control

CCOc1ccc2[nH]c(C)c(CC(=O)O)c2c1
inactive: [16] 97 % of control | [17] 103 % of control | [18] 97 % of control

COc1ccccc1-c1ccc([N+](=O)[O-])cc1[N+](=O)[O-]
inactive: [19] 100 % of control | [20] 105 % of control | [21] 102 % of control

Cn1cnc([N+](=O)[O-])c1[Se]c1ncnc2c1ccn2C1OC(CO)C(O)C1O (centres undefined)
inactive: [22] 102 % of control | [23] 105 % of control | [24] 97 % of control

CCCCC[P+](c1ccccc1)(c1ccccc1)c1ccccc1
inactive: dose: 12.5 mg/kg/injection, schedule: Q04DX002 (ip), vehicle: Klucel (hydroxypropylcellulose) (HPC) 109 % of control | dose: 25.0 mg/kg/injection, schedule: Q04DX002 (ip), vehicle: Klucel (hydroxypropylcellulose) (HPC) 106 % of control | dose: 50.0 mg/kg/injection, schedule: Q04DX002 (ip), vehicle: Klucel (hydroxypropylcellulose) (HPC) 109 % of control

CCNC(=O)OCc1cc(Cl)cc(Cl)c1OC(=O)NCC
inactive: [19] 103 % of control | [20] 97 % of control | [21] 106 % of control

COc1ccc(/C=C/[N+](=O)[O-])cc1O
inactive: [24] 110 % of control | [25] 98 % of control | dose: 50.0 mg/kg/injection, schedule: Q01DX009 (ip), vehicle: saline 102 % of control | dose: 50.0 mg/kg/injection, schedule: Q04DX003 (ip), vehicle: saline 98 % of control | [3] 100 % of control | [6] 86 % of control

Cc1ccc(NCC(=O)O)cc1
inactive: dose: 100.0 mg/kg/injection, schedule: Q01DX Z (ip), vehicle: methylcellulose (MC) 101 % of control | dose: 200.0 mg/kg/injection, schedule: Q01DX Z (ip), vehicle: methylcellulose (MC) 101 % of control

Cc1ccccc1NP1(=O)OCCCN1Cc1ccccc1Cl (centres undefined)
inactive: [26] 104 % of control | [19] 96 % of control | [20] 98 % of control | [21] 95 % of control

Cc1cc[n+](Cc2ccccc2Cl)cc1
inactive: [22] 97 % of control | dose: 6.25 mg/kg/injection, schedule: Q04DX003 (ip), vehicle: saline 96 % of control | [23] 97 % of control | dose: 12.5 mg/kg/injection, schedule: Q04DX003 (ip), vehicle: saline 107 % of control | [24] 100 % of control | [25] 89 % of control

Cc1cc(C)c(C(=O)OC(c2ccccc2)C(C)c2ccccc2)c(C)c1 (centres undefined)
inactive: [27] 94 % of control | [28] 94 % of control | dose: 300.0 mg/kg/injection, schedule: Q01DX001 (ip), vehicle: saline 89 % of control

NC(=S)N1CCCCC1
inactive: [1] 98 % of control | [4] 96 % of control

CCCP(=S)(CCC)Oc1ccc([N+](=O)[O-])cc1
inactive: [27] 95 % of control | [28] 98 % of control

COC(=O)C1(C(=O)OC)C2C(=O)C3C(C21)C3(C(=O)OC(C)(C)C)C(=O)OC(C)(C)C (centres undefined)
inactive: dose: 100.0 mg/kg/injection, schedule: Q01DX009 (ip), vehicle: saline with Tween-80 95 % of control | dose: 100.0 mg/kg/injection, schedule: Q04DX003 (ip), vehicle: saline with Tween-80 101 % of control and 98 % of control | dose: 200.0 mg/kg/injection, schedule: Q01DX009 (ip), vehicle: saline with Tween-80 92 % of control | dose: 200.0 mg/kg/injection, schedule: Q04DX003 (ip), vehicle: saline with Tween-80 102 % of control and 88 % of control | dose: 400.0 mg/kg/injection, schedule: Q01DX009 (ip), vehicle: saline with Tween-80 92 % of control | dose: 400.0 mg/kg/injection, schedule: Q04DX003 (ip), vehicle: saline with Tween-80 91 % of control and 111 % of control

Nc1ccc([N+](=O)[O-])c2ccccc12
inactive: [26] 87 % of control | [19] 93 % of control | [20] 98 % of control | [21] 87 % of control

Nc1nc(O)c(NC(=O)Nc2ccccc2)c(=O)[nH]1
inactive: dose: 100.0 mg/kg/injection, schedule: Q04DX003 (ip), vehicle: gum acacia 102 % of control | dose: 200.0 mg/kg/injection, schedule: Q04DX003 (ip), vehicle: gum acacia 100 % of control | dose: 400.0 mg/kg/injection, schedule: Q04DX003 (ip), vehicle: gum acacia 105 % of control

C(#CSCc1ccccc1)SCc1ccccc1
inactive: [10] 94 % of control | dose: 100.0 mg/kg/injection, schedule: Q04DX003 (ip), vehicle: Klucel (hydroxypropylcellulose) (HPC) 104 % of control | [11] 96 % of control | dose: 200.0 mg/kg/injection, schedule: Q04DX003 (ip), vehicle: Klucel (hydroxypropylcellulose) (HPC) 102 % of control | [12] 97 % of control | dose: 400.0 mg/kg/injection, schedule: Q04DX003 (ip), vehicle: Klucel (hydroxypropylcellulose) (HPC) 104 % of control

Nc1cnccc1NCCN1CCN(c2ccccc2)CC1
inactive: [1] 98 % of control
